Assay [1] has as its system Plasmodium berghei. Kind of assay: (§1) Antimalarial activity against Plasmodium berghei in mice (Mus musculus). Format: functional, organism-based.
Assay [2] concerns Plasmodium berghei. The description is as §1. Format: functional.

With `Fc1ccc([C@]23CC[C@H]4CCCC[C@@]4(OO2)[C@H](OCc2ccccc2)O3)cc1`, the midpoint of inhibition in the assay with Plasmodium berghei [1], the IC50, lay at 31 nM.
Turning to `O=C(O)c1ccc([C@@]23CC[C@H]4CCC[C@H]5CCO[C@H](O2)[C@@]45OO3)cc1`, in the assay on Plasmodium berghei [2], it took a dose of 15 mg/kg to reach the 50% effect level (ED50) and the ED90 was found to be 51 mg/kg.
For `O=C(O)c1ccc([C@]23CC[C@H]4CCCC[C@@]4(OO2)[C@H](OCc2ccccc2)O3)cc1`, in the assay with Plasmodium berghei [2], the ED50 (commonly the midpoint of the dose-response relation) turned out to be 17 mg/kg and the ED90 was 59 mg/kg.
Regarding `c1ccc([C@@]23CC[C@H]4CCC[C@H]5CCO[C@H](O2)[C@@]45OO3)cc1`, the 50% inhibitory concentration (IC50) (commonly the concentration at which inhibition is half-maximal) with Plasmodium berghei [1] amounted to 1.3 nM. In other words, the single-digit nanomolar range.
On to `C[C@@H]1[C@H](OCc2ccc(C(=O)O)cc2)O[C@@H]2O[C@@]3(C)CC[C@@H]4[C@@H](C)CC[C@@H]1[C@]24OO3` [ARTELINIC ACID], for which, in the assay on Plasmodium berghei [2], the ED50 worked out at 9.6 mg/kg and the ED90 stood at 29 mg/kg.
In the assay on Plasmodium berghei [1], `C[C@@H]1CC[C@H]2[C@@H](C)C(=O)O[C@@H]3O[C@@]4(C)CC[C@@H]1[C@]32OO4` [ARTEMISININ] showed an IC50 of 9.4 nM.

The record behind these values is ChEMBL document CHEMBL1135757, “Orally active, water-soluble antimalarial 3-aryltrioxanes: short synthesis and preclinical efficacy testing in rodents” (J Med Chem, 2002).
